Measured values published in US20170095467A1, “ENCAPSULATION OF ISOQUINOLINE ALKALOIDS” (Rhizofeed, LLC, priority 2015, published 2017).

How the values were obtained:
[1] = Encapsulate degradation by heat (oven / pelletization-like conditions); type: physicochemical; conditions: 24 h
Experimental: (§1) The optimized encapsulation method disclosed herein was employed to produce alkaloid loaded inulin beads. These beads were subjected to both heat and light to determine the protective properties conferred by the microencapsulation process.
To determine the protection the microencapsulation process provides against heat, 1 g of inulin beads was placed in a Fischer Scientific model 605G Isotemp Oven for 24 hours at 96° C. A comparative example of sanguinarine standard that was not encapsulated was also placed in the oven.
A second study was also performed to understand the effect pelletization could have on the microcapsules. In the second study, 1 g of inulin beads was placed in a loosely covered beaker and subjected to 121° C. heat and 16 psi conditions for 20 minutes. These values are much higher in magnitude and duration than will be endured in the pelletization process for animal feed. As depicted in Table 10, the microcapsules decreased degradation by a factor of 1.62.

[2] = Encapsulate degradation by UV light; type: physicochemical
Description: as §1
To determine the light protection provided by the microencapsulation process, 1 g of inulin beads was exposed to a UV source (115V Arthur H. Thomas Co. Lamp).

[3] = Photosensitivity of sanguinarine and chelerythrine in crude rhizome extract under short-wave UV light (HPLC); type: physicochemical
Experimental: 2 mL of each sample was then collected. All dilutions were filtered through 0.22 um syringe filter (Restek) and were stored in a dark environment held at −4° C. Mobile phases were prepared using 40% acetonitrile, 59% distilled water, and 1% acetic acid. The flow rate was 1.0000 mL/minute, and a pressure of approximately 2161.06 psi was maintained. UV visible spectroscopy was used to determine the optimum wavelength of detection, and detection was carried out at 330 nm. Preliminary studies determined that isoquinoline alkaloids are […] under UV light. In a purified state, it has been established that Sanguinarine undergoes photochemical conversion to oxysanguinarine. […] As depicted in Table 7 and FIG. 5, exposure to light or UV radiation over any period of time has a detrimental effect on the encapsulation yield. According to certain embodiments, exposure to light and UV radiation can be minimized by storing the alkaloids in dark conditions until the encapsulation process is complete or the finished product is used.

[4] = Heat degradation of alkaloids in crude extract / extraction with heat; type: physicochemical
Experimental: Two preliminary studies involving heat were conducted. In one study, the raw bloodroot powder was placed on a heating element for 24 hours while the alkaloid was extracted. […] In a second study, a crude extract of alkaloids was placed on a heating element at 67° C. to test for degradation.

rats = conditions: rat, in vivo; cited from earlier work
[5] = Crude Extract Exposed to UV Light (24 Hours)
[6] = Crude Extract Exposed to UV Light (48 Hours)
[7] = Crude Extract Exposed to UV Light (72 Hours)
[8] = Crude Extract Exposed to UV Light (144 Hours)
[9] = Standard Extraction (No Heat or Light Exposure)
[10] = Crude Extract Exposed to Heat (24 Hours)

Row | Compound | Percent Degradation ([1]; 96° C.) | Post-Exposure Alkaloid concentration ([1]; 96° C.) | Pre-exposure Alkaloid concentration ([1]; 96° C.) | Percent Degradation ([1]; 121° C., 16 psi, Sang. Only) | Post-Exposure Alkaloid concentration ([1]; 121° C., 16 psi, Sang. Only) | Pre-exposure Alkaloid concentration ([1]; 121° C., 16 psi, Sang. Only) | Percent Degradation [2] | Post-Exposure Alkaloid conc. [2] | Pre-exposure Alkaloid conc. [2] | Percentage of alkaloid in Extract [3, 5] | Percentage of alkaloid in Extract [3, 6] | Percentage of alkaloid in Extract [3, 7] | Percentage of alkaloid in Extract [3, 8] | Percentage of alkaloid in Extract [3, 9] | Percentage of alkaloid in Extract [4, 10] | Percentage of alkaloid in Extract ([4]; Extracted with Heat (24 Hours)) | Percentage of alkaloid in Extract [4, 9] | LD50 (rats)
1 | C[n+]1cc2c3c(ccc2c2ccc4cc5c(cc4c21)OCO5)OCO3 [Standard, sanguinarine chloride] | 25.40% | 0.229 mg/mL | 0.307 mg/mL | 63.30% | .07306 (Sang mg/mL | .2002 (Sang. mg/mL | 49.80% | 0.154 mg/mL | 0.307 mg/mL | – | – | – | – | – | – | – | – | –
2 | COc1ccc2c(c[n+](C)c3c4cc5c(cc4ccc23)OCO5)c1OC [Chelerythrine, chelerythrine] | – | – | – | – | – | – | – | – | – | 1.50% | 1.46% | 1.45% | 1.30% | 2.95% | 1.81% | 2.43% | 2.95% | –
3 | C[n+]1cc2c3c(ccc2c2ccc4cc5c(cc4c21)OCO5)OCO3 [Sanguinarine, sanguinarine] | – | – | – | – | – | – | – | – | – | 2.61% | 2.41% | 2.35% | 1.26% | 5.21% | 4.28% | 3.41% | 5.21% | 1658 mg/kg
